Assay [1] can be described thus: Inhibition of mouse GAT3 expressed in HEK293 cells assessed as reduction in [3H]GABA uptake preincubated for 25 mins followed by [3H]GABA addition and measured after 4 mins by microbeta liquid scintillation counting method.
The nature of assay [2]: Inhibition of mouse GAT2 expressed in HEK293 cells assessed as reduction in [3H]GABA uptake preincubated for 25 mins followed by [3H]GABA addition and measured after 10 mins by microbeta liquid scintillation counting method.
For assay [3], the target named is T1, Sodium- and chloride-dependent GABA transporter 2 (Mus musculus, UniProt P31649).
T1 sequence (P31649 whole entry): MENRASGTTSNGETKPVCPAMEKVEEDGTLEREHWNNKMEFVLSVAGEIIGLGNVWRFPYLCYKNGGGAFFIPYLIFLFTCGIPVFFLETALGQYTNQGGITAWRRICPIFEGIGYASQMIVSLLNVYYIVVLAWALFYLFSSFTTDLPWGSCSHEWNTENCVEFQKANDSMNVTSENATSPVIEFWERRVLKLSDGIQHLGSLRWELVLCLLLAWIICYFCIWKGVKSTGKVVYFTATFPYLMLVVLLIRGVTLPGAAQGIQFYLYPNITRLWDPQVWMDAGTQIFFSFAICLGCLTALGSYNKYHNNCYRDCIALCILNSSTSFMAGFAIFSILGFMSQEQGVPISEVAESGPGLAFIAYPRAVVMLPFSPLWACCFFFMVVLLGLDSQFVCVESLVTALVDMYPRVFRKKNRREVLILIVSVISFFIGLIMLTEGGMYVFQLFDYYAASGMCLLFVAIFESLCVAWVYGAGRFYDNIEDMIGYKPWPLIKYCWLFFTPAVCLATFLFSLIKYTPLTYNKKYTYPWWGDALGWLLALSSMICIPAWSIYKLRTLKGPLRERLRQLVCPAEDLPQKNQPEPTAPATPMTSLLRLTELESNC
Nature of the assay: Inhibition of mouse GAT2 expressed in HEK293 cells assessed as reduction in [3H]GABA uptake preincubated for 25 mins followed by [3H]GABA addition and measured after 10 mins by microbeta liquid scintillation counting method.

Structures are written as SMILES.

In BindingDB's records for doi:10.1016/j.bmc.2019.01.024 (2019) one finds IC50 data, which are given here for five molecules.

Usually IC50 stands for the concentration at which inhibition is half-maximal.

For `COc1ccc(C(/C=C\CN2CCCC(C(=O)O)C2)(c2ccc(OC)cc2)c2ccc3c(c2)OCO3)cc1` (stereo unspecified), the figures for the IC50 in assay [1] and in assay [2] were 45.7 µM and 61.7 µM, respectively.
Turning to `COc1ccc(C(/C=C\CN2CCCC(C(=O)O)C2)(Cc2ccccc2)c2ccc(OC)cc2)cc1` (stereo unspecified), in assay [3], the IC50 stood at 30.2 µM.
Regarding `COc1ccc(C(C/C=C\CN2CCCC(C(=O)O)C2)(c2ccc(OC)cc2)c2ccc(OC)cc2)cc1` (stereo unspecified), the IC50 in assay [1] was determined as 85.1 µM.
For the molecule `O=C(O)C1CCCN(CC/C=C\C(c2ccccc2)(c2ccccc2)c2ccccc2)C1` (stereo unspecified), the IC50 in assay [2] turned out to be 55 µM.
Consider `COc1ccc(C(/C=C\CN2CCCC(C(=O)O)C2)(c2ccc(OC)cc2)c2ccsc2)cc1` (stereo unspecified), for which the IC50 in assay [2] was 89.1 µM.
